Series [1] can be described thus: Reverse-Phase HPLC retention time correlation study (hydrophobicity). To be noted: RP-HPLC; high Rt associated to hydrophobic constructs, low Rt to hydrophilic ones. It is filed as physicochemical. As for the experimental part: • Column: Phenomenex Gemini NX 5m, C18, 110 Å, 150 × 4.6 mm • Instrument: Shimadzu LC-2030 • Mobile phase: A) water (0.05% TFA), B) acetonitrile (0.05% TFA) • Gradient: 20-70% B over 15 min, flow 1.0 mL/min
A correlation study was also carried out using Reverse-Phase HPLC (RP-HPLC). The two constructs were injected in RP-HPLC and retention times (Rt) correlated with hydrophobicity - i.e., high Rt was associated to hydrophobic constructs whereas low Rt to hydrophilic ones.

Series [2] in a line: Aggregation study during conjugation to test antibody (% monomer by SEC). It is filed as physicochemical. As for the experimental part: Aggregation is a process in which molecules self-associate with each other. In the context of the present invention, aggregation levels are assessed during the conjugation of a linker construct to an antibody. During conjugation, aggregation is quantified in terms of percentage monomer content. High percentage monomer values typically equate to a lower degree of aggregation. Percentage monomer values of 93% or 95% or higher typically mean negligible levels of aggregation or none, whereas values below this threshold typically translate to higher levels of aggregation.
2 mg of test monoclonal antibody at 8.87 mg/ml was pH adjusted with 5% 0.5 M Tris, 0.025 M EDTA, pH 8.5 and reduced with 2.3 mol. eq. TCEP and then conjugated with 6mol. eq. drug linker. […] Percentage monomer values of 95% or greater are assessed as low aggregation.
Aggregation levels were assessed during the conjugation to the test antibody.
During conjugation, we are ideally targeting a monomer content or percentage monomer of 95% or above. Low percentage monomer values usually translate to a higher degree of aggregation. One could therefore agree that percentage monomer values of 95% or higher mean very low levels of aggregation or none, whereas values below this threshold often translate to higher levels of aggregation.

The results in this text go back to EP4541376A1, “ANTIBODY-DRUG CONJUGATES” (priority 2023, dated 2025).

Numbered stars: 1 amine (or outer) side, 2 acyl side, 3 side chain; on linkers, the order of the positions; unused ones are H or OH. Square brackets hold non-standard residues; d marks the D form. Peptide text beside a SMILES is read from it. * marks the point of attachment. Exatecan = CC[C@@]1(O)C(=O)OCc2c1cc1n(c2=O)Cc2c-1nc1cc(F)c(C)c3c1c2[C@@H](N*)CC3; Propanoyl(3-maleimido) = O=C1C=CC(=O)N1CCC(=O)*; PABC = O=C(OCc1ccc(N[*:1])cc1)[*:2]

In turn, `CC[C@@]1(O)C(=O)OCc2c1cc1n(c2=O)Cc2c-1nc1cc(F)c(C)c3c1c2[C@@H](NC(=O)OCc1ccc(NC(=O)[C@H](C)NC(=O)[C@@H](NC(=O)CNC(=O)CNC(=O)CNC(=O)CNC(=O)CNC(=O)CCN2C(=O)C=CC2=O)C(C)C)cc1)CC3` [Mal-Gly5-VA-PABC-Exatecan] ({Propanoyl(3-maleimido)}-GGGGGVA[PABC]-Exatecan) returned a Rt in series [1] of 9.76 min. The “Aggregation (% monomer)” value in series [2] (% monomer by SEC after conjugation to test monoclonal antibody, 95% or greater assessed as low aggregation) stood at 98%. For the same compound, the Aggregation entry in series [2] (grade in words, drug linker conjugated to test monoclonal antibody (2.3 mol. eq. TCEP, 6 mol. eq. drug linker)) is listed as “None”.
